Experimental data from ChEMBL document CHEMBL1811882, “Synthesis and in vitro evaluation of novel pro-drugs for the treatment of nephropathic cystinosis” (Bioorg Med Chem, 2011).
Activity calls are given as the source filed them. No cut-off for these calls is given here.

Assays:
[1] = Cytotoxicity against cystinotic human fibroblasts at 50 uM after 72 hrs by Alamar blue assay; type: cell-based; conditions: fibroblast
[2] = tested on: Fibroblast; test: Reduction of intralysosomal cystine in cystinotic human fibroblasts at 50 uM after 24 hrs by Bradford method relative to control; type: functional, cell-based

SMILES | Activity [1] | Activity [2]
Cl.Cl.NCCSSCCNC(=O)CCC(=O)NCCSSCCNC(=O)CCC(=O)NCCSSCCN | Non-toxic | Active
Cl.Cl.N[C@@H](Cc1ccccc1)C(=O)NCCSSCCNC(=O)CCCC(=O)NCCSSCCNC(=O)CCCC(=O)NCCSSCCNC(=O)[C@@H](N)Cc1ccccc1 | Non-toxic | Active
NCCS [CYSTEAMINE] | Non-toxic | Active
Cl.Cl.NCCSSCCNC(=O)CCCC(=O)NCCSSCCNC(=O)CCCC(=O)NCCSSCCN | Non-toxic | Active
Cl.Cl.N[C@@H](Cc1ccccc1)C(=O)NCCSSCCNC(=O)CCC(=O)NCCSSCCNC(=O)CCC(=O)NCCSSCCNC(=O)[C@@H](N)Cc1ccccc1 | Non-toxic | Active
